# The source made the active and inactive calls.
# Experiments:
# [1] = A Cell Based Secondary Assay To Explore Cytotoxicity of Compounds that Sensitize Mycobacterium Tuberculosis to Beta-Lactam Antibiotics.; assay type: functional
# Caspase-3 = target: T1, Caspase-3 (Homo sapiens, UniProt P42574); test: SAR Analysis of small molecule inhibitors of Sentrin-specific proteases (SENPs) using a Caspase-3 Selectivity assay. [Related pubchem assays (depositor defined):AID2540, AID2599, AID434973, AID489001]; assay type: functional
# T1 sequence (P42574 whole entry): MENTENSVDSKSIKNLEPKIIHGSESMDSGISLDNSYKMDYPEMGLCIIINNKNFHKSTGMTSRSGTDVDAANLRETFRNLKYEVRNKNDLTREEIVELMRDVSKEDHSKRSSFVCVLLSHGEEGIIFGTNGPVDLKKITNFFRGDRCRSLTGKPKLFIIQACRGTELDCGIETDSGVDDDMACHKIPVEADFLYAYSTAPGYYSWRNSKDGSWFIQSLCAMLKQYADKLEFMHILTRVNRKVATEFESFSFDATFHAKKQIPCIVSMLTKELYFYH
# Estrogen receptor beta [2] = target: T2, Estrogen receptor beta (Homo sapiens, UniProt Q92731);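 further: recombinant ER-beta bound to coactivator SRC1 peptide in presence of estradiol agonist; inhibitors block coactivator peptide binding and lower the FRET signal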
# T2 sequence (Q92731 whole entry): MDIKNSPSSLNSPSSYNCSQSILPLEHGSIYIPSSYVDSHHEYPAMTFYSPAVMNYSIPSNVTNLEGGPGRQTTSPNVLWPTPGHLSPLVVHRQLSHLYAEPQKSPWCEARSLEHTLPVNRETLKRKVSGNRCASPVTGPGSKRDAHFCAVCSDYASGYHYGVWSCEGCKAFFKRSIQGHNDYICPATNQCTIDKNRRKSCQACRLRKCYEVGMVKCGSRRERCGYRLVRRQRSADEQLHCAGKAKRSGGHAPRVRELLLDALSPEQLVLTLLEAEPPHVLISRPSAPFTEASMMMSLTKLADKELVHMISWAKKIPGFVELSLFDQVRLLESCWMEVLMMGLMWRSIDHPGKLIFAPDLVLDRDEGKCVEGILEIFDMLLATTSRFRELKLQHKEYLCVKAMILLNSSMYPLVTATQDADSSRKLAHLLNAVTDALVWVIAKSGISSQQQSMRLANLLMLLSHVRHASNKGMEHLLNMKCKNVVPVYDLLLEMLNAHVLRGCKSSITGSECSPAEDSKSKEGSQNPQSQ
# [3] = target: T3, Sentrin-specific protease 6 (Homo sapiens, UniProt Q9GZR1); test: SAR Analysis of small molecule inhibitors of Sentrin-specific protease 6 (SENP6) using a Luminescent assay. [Related pubchem assays (depositor defined):AID2582, AID2599]; assay type: functional
# T3 sequence (Q9GZR1 whole entry): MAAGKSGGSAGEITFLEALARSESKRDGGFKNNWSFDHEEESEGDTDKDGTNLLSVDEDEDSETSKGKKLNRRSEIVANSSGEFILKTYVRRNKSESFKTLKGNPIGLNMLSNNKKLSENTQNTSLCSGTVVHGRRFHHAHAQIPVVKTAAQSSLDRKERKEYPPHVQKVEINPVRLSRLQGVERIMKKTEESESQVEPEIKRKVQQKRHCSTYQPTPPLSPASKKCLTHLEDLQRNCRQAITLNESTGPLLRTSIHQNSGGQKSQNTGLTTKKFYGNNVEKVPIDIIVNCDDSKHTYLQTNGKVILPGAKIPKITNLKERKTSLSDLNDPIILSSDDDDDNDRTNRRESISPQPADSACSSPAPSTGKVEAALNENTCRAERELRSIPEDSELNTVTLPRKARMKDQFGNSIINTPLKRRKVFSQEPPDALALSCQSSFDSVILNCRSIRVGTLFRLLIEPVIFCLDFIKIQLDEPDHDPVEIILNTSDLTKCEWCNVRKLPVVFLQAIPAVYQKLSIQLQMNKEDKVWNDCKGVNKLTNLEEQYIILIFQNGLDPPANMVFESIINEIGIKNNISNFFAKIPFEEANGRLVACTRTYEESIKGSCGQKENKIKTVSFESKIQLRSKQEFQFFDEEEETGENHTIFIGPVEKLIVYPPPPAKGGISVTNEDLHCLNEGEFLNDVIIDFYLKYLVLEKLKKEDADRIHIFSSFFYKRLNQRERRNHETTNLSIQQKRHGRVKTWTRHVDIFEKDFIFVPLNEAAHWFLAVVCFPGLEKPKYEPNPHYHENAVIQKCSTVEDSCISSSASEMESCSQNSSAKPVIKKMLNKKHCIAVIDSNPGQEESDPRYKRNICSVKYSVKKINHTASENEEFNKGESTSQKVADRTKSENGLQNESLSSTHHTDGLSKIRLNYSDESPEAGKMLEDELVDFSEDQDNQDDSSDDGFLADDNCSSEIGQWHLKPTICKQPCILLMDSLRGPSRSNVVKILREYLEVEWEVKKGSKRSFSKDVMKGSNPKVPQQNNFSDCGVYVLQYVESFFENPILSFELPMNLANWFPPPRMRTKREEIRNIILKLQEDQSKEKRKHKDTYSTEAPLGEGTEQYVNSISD
# Estrogen receptor beta [4] = target: T2, Estrogen receptor beta; test: blockers of SRC-3 recruitment to ERβ – biochemical, ELISA, streptavidin-HRP readout, orthogonal assay, confirmation (AID 1060)
# [5] = target: T4, Sentrin-specific protease 8 (Homo sapiens, UniProt Q96LD8); test: inhibition of human SENP8 cleavage activity – biochemical, luminescence, SAR follow-up (AID 504501); assay type: functional
# T4 sequence (Q96LD8 whole entry): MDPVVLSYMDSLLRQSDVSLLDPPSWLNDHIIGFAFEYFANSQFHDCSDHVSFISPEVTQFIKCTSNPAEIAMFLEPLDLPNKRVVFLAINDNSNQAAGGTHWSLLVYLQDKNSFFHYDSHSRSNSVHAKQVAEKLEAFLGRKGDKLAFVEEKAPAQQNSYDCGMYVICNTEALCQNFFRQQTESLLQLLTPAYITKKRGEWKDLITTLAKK
# [6] = target: T5, Sentrin-specific protease 7 (Homo sapiens, UniProt Q9BQF6); test: inhibition of human SENP7 cleavage activity – biochemical, luminescence, SAR follow-up (AID 504497); assay type: functional
# T5 sequence (Q9BQF6 whole entry): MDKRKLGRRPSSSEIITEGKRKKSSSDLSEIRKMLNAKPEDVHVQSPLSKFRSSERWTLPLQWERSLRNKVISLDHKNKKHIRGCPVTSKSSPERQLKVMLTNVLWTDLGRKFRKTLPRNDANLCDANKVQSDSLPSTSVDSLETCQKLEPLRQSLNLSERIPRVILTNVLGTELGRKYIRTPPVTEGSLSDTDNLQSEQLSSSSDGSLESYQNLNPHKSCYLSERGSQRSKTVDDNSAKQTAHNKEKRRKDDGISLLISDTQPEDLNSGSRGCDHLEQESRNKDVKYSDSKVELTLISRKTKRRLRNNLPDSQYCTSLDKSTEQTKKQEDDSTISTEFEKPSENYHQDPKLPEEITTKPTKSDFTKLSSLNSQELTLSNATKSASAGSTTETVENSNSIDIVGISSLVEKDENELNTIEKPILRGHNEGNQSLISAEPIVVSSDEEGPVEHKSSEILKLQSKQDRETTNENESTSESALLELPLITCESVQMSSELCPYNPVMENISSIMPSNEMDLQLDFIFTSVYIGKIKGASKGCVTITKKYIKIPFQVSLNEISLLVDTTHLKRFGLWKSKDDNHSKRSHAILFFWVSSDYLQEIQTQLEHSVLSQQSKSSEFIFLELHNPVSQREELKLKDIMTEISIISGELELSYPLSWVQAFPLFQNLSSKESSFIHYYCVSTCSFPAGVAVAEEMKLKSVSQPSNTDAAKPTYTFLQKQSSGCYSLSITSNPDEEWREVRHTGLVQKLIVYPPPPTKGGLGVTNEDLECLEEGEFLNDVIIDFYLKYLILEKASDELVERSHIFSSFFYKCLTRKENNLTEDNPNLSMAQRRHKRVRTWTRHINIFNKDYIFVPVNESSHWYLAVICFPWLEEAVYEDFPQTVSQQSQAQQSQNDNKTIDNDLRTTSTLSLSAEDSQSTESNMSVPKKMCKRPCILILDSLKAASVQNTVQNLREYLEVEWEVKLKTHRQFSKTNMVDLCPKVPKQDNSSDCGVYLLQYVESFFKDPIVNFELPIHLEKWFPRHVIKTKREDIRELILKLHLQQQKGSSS
# [7] = target: T6, Polyadenylate-binding protein 1 (Homo sapiens, UniProt P11940); test: MLLE binding blockers, Cy5 peptide tracer – biochemical, fluorescence polarization, Cy5-PAM2 peptide, secondary, miRNA deadenylation inhibitor project, dose response (AID 602260); assay type: functional; conditions: read-out: IC50_Mean
# T6 sequence (P11940 whole entry, the tested form may be a part): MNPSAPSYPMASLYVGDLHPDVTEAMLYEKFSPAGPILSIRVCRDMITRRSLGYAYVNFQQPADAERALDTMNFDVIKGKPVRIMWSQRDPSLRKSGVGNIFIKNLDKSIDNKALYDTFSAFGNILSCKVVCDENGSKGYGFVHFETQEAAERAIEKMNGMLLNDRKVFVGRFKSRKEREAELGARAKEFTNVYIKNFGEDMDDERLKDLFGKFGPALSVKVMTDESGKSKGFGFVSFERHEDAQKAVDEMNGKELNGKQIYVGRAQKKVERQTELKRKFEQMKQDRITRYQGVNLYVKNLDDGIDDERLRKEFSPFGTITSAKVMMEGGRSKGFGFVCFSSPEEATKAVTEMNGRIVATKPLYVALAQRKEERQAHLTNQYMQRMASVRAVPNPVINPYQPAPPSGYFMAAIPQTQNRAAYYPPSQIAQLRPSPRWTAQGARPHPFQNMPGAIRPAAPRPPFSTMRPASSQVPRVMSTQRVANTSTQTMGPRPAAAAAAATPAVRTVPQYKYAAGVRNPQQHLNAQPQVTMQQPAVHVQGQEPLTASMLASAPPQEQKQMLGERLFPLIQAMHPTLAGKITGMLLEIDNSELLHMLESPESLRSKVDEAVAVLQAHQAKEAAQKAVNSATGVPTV
# [8] = target: T6, Polyadenylate-binding protein 1; test: MLLE domain peptide-binding blockers, IC50 – biochemical, fluorescence polarization, FITC-PAM2 peptide, dose response (AID 602259); assay type: functional; conditions: read-out: IC50_Mean
# [9] = target: T7, Mannose-6-phosphate isomerase (Homo sapiens, UniProt P34949); test: MPI enzyme activity inhibition – biochemical, fluorescence intensity, coupled assay, primary screen (AID 1209)
# T7 sequence (P34949 whole entry): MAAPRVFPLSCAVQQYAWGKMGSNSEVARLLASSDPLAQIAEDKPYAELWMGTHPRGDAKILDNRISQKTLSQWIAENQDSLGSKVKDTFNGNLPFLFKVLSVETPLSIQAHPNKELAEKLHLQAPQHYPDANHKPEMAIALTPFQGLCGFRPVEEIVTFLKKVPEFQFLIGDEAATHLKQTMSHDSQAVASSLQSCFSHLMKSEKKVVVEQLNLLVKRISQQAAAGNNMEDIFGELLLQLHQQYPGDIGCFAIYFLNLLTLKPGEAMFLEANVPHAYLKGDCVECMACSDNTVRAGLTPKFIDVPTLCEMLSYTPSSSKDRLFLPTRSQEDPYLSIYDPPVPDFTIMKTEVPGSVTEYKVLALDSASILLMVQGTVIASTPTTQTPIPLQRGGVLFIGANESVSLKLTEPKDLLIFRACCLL
# [10] = target: T8, Replicative DNA helicase DnaB (Mycobacterium tuberculosis, UniProt P9WMR3); test: DnaB intein splicing inhibitors, dose response, biochemical, cell-free fluorescence (AID 449749); assay type: functional
# T8 sequence (P9WMR3 whole entry): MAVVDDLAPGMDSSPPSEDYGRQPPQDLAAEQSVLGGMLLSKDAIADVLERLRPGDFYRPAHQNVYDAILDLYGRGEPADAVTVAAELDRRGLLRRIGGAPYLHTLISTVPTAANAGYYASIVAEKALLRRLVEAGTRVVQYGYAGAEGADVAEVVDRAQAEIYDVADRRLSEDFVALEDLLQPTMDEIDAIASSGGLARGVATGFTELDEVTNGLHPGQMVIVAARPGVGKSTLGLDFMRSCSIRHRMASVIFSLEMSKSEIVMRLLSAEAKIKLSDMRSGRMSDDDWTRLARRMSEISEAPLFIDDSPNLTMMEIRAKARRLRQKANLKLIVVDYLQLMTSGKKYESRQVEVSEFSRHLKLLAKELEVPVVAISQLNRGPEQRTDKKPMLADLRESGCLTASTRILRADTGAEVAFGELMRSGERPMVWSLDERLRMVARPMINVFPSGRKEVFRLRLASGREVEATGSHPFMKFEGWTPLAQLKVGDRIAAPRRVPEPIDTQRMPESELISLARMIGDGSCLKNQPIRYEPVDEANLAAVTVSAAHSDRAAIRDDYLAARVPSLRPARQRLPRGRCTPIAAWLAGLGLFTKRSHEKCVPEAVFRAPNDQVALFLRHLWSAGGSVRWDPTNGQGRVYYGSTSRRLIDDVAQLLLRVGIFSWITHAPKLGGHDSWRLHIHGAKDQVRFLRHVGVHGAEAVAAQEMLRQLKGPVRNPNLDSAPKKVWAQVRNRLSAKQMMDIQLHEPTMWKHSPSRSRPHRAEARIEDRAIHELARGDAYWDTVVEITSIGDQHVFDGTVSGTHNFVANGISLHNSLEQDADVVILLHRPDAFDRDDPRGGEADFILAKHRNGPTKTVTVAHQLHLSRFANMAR
# Genome polyprotein = Genome polyprotein (dengue virus type 2, UniProt P29990); test: flavivirus cap methylation enzyme inhibition – biochemical, confirmation dose response, primary screen (AID 588689); assay type: functional
# Protein RecA = target: T9, Protein RecA (Mycobacterium tuberculosis, UniProt P9WHJ3); test: Fluorescence Cell-Free Homogeneous Dose Retest to Identify Inhibitors of RecA-Intein Splicing Activity. [Related pubchem assays (depositor defined):AID2097, AID2223, AID489010, AID492950]; assay type: functional
# T9 sequence (P9WHJ3 whole entry): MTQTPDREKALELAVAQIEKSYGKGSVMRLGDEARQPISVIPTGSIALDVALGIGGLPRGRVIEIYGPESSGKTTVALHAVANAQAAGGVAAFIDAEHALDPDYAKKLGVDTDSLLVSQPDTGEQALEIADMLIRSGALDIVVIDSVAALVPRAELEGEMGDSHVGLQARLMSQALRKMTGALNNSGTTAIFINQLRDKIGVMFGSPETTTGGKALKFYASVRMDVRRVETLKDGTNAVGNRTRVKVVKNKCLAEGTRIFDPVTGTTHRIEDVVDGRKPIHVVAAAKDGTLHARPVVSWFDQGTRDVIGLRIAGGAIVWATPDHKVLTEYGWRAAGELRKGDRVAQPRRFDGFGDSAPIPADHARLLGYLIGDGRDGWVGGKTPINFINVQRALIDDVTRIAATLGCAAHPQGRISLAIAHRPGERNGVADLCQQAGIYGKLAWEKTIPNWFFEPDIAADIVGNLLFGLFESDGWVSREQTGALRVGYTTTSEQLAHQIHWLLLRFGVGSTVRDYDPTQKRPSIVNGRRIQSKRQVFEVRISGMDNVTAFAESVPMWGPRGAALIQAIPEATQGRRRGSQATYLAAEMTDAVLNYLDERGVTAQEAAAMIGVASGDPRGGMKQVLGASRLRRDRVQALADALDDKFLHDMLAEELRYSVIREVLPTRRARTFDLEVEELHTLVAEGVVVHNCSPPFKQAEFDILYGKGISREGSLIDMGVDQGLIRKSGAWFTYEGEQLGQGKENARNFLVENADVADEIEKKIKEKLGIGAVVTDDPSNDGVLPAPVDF
# [11] = target: Peroxisome proliferator-activated receptor gamma/Nuclear receptor coactivator 3 (Homo sapiens, UniProt P37231); assay type: functional;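 further: agonist potency for raising coactivator recruitment to the receptor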
# Peroxisome proliferator-activated receptor gamma/Nuclear receptor coactivator 3, sequence (P37231 whole entry): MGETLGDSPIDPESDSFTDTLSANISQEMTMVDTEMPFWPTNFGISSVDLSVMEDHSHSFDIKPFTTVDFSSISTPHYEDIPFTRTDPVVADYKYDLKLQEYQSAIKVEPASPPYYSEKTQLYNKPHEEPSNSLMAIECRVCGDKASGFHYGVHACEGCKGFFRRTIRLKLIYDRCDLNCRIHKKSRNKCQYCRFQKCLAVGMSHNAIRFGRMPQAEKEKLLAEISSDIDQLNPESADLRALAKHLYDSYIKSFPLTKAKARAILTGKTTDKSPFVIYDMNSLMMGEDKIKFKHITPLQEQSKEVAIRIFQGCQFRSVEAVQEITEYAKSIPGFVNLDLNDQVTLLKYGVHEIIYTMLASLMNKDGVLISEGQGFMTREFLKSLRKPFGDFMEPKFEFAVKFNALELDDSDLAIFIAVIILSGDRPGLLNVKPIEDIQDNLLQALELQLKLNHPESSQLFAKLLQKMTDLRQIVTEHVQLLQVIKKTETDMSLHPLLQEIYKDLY
# Peroxisome proliferator-activated receptor gamma/Nuclear receptor coactivator 3, sequence (Q9Y6Q9 whole entry, further chain): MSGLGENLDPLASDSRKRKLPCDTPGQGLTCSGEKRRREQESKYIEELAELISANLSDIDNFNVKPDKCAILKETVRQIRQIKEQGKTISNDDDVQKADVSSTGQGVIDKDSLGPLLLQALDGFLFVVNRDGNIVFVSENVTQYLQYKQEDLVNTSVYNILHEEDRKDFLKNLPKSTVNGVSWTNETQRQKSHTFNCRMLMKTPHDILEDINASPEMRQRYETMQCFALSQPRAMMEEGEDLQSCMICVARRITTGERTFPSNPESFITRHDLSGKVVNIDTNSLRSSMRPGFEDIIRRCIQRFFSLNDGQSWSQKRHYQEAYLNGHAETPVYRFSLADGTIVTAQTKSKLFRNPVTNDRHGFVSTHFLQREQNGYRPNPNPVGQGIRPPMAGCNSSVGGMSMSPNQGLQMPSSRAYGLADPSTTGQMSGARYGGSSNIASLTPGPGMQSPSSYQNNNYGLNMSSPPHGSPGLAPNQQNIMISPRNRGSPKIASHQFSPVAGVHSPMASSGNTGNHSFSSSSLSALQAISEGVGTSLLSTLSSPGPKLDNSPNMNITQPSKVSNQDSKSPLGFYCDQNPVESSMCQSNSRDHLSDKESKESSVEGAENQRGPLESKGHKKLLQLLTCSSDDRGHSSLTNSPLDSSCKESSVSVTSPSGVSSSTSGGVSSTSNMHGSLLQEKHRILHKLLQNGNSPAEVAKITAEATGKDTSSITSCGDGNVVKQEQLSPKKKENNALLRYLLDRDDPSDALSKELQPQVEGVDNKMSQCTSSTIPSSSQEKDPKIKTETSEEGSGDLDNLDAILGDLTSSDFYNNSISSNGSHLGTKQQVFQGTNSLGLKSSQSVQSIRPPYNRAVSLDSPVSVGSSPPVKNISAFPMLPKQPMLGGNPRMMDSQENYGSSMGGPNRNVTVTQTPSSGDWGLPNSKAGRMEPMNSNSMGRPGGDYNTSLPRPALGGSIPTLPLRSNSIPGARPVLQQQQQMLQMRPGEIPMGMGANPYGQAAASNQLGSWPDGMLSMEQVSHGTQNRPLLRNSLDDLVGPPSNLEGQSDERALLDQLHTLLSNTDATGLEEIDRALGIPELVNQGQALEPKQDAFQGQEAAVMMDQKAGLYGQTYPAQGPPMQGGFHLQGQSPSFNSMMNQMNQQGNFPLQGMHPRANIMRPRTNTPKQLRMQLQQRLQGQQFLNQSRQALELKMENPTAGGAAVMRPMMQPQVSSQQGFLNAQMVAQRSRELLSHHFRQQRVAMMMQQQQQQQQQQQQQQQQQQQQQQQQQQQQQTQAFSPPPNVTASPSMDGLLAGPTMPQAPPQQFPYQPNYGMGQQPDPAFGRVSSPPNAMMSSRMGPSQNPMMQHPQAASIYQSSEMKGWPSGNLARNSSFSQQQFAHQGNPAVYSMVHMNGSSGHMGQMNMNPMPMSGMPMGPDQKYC
# [12] = target: Peroxisome proliferator-activated receptor gamma/Nuclear receptor coactivator 1 (Homo sapiens, UniProt P37231); assay type: functional;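 further: agonist potency as compounds enhance coactivator SRC-1 recruitment to PPARgamma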
# [13] = target: Peroxisome proliferator-activated receptor gamma/Nuclear receptor coactivator 2 (Homo sapiens, UniProt P37231); assay type: functional;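 further: agonist potency for raising coactivator recruitment to the receptor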
# Peroxisome proliferator-activated receptor gamma/Nuclear receptor coactivator 2, sequence (P37231 whole entry): as the sequence (P37231 whole entry) above
# Peroxisome proliferator-activated receptor gamma/Nuclear receptor coactivator 2, sequence (Q15596 whole entry, further chain): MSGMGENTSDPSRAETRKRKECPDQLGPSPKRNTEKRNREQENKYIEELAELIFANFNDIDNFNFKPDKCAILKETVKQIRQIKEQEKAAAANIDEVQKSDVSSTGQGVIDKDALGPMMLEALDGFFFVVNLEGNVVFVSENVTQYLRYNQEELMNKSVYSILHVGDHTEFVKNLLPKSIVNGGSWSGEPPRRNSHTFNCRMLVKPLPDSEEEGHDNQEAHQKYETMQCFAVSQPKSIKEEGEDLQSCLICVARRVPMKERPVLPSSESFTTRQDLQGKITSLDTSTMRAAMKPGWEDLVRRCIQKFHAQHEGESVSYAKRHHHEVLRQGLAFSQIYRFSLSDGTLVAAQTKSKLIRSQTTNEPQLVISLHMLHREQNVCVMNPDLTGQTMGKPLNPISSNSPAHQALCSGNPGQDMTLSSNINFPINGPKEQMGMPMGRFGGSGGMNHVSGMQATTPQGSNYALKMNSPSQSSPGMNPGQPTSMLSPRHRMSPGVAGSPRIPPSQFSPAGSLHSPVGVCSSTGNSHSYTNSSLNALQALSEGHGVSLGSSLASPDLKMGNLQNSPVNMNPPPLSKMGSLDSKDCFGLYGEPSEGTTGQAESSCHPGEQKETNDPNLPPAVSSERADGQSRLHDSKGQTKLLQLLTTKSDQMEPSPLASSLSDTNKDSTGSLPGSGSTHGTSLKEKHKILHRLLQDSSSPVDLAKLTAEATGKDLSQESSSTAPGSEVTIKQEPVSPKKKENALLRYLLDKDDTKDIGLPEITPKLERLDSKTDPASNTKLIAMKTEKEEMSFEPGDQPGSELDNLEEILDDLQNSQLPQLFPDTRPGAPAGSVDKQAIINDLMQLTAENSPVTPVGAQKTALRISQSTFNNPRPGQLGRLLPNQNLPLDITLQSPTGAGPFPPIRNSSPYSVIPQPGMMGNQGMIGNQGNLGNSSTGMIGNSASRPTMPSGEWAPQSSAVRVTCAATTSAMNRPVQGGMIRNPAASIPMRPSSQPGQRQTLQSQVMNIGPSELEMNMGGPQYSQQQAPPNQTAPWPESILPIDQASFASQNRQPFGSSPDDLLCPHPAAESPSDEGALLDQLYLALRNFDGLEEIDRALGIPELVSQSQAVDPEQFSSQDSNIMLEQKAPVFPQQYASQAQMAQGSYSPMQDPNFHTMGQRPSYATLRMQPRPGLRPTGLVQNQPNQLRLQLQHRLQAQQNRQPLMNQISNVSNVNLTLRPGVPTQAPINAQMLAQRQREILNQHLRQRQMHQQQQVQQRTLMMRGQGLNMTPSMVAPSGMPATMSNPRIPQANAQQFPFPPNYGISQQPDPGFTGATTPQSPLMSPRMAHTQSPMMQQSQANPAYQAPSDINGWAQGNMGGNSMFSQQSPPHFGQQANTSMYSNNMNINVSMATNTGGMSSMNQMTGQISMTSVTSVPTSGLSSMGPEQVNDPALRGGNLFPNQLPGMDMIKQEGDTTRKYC
smiles,measurement,setting,value
CC1CC1C(=O)Nc1nc(-c2cccs2)c(-c2cccs2)s1 (stereo unspecified),CC50,[1],> 40 µM (active)
Cc1cc(C(=O)Nc2sc3c(c2C#N)CCC3)no1,IC50,Caspase-3,30.4 µM (active)
same,IC50,Estrogen receptor beta [2],11.5 µM (active)
same,IC50,[3],> 99 µM (inactive)
same,IC50,Estrogen receptor beta [4],< 0.023 µM (not active)
same,IC50,[5],> 99 µM (inactive)
same,IC50,[6],52.7 µM (active)
COc1cc(-c2nc(S(=O)(=O)c3ccc(C)cc3)c(N3CCOCC3)o2)cc(OC)c1OC,CC50,[1],> 40 µM (active)
same,IC50,[7],> 66 µM (inactive)
same,IC50,[8],> 66 µM (inactive)
Cc1ccc(-n2nnnc2Sc2nc([N+](=O)[O-])nn2C)cc1,CC50,[1],16.5 µM (active)
O=C(O)CC1SC(N/N=C/c2ccc(-c3ccc(Cl)cc3[N+](=O)[O-])o2)=NC1=O (stereo unspecified),IC50,[9],> 50 µM (not active)
same,AC50,[10],> 380 µM (inactive)
same,IC50,Genome polyprotein,34.8 µM (active)
same,EC50,Protein RecA,4.61 µM (active)
O=S(=O)(Nc1cccc(C(F)(F)F)c1)c1cnc[nH]1,EC50,[11],> 79.4 µM (not active)
same,EC50,[12],> 79.4 µM (not active)
same,EC50,[13],> 79.4 µM (not active)
COc1cc2c(cc1OC)C(Nc1ccc(S(N)(=O)=O)cc1)=NC(C)(C)C2,EC50,[11],> 79.4 µM (not active)
same,EC50,[12],> 79.4 µM (not active)
same,EC50,[13],> 79.4 µM (not active)
